Like-named read-outs stand apart in the source and are kept apart here.
Legend:
[1] = molecular target: CHK1(h) (Homo sapiens, UniProt O14757); test: isolated kinase activity, CHK1; assay type: biochemical; settings: compound @ 10 μM
From the text: Table 8 illustrates percent activity of isolated kinases in the presence of the AstraZeneca ATP-competitive inhibitor (KX2-328, AZ-28) or KX2-391 relative to control (untreated) isolated kinases.

[2] = test system: K562 (CML); test: growth inhibition (BrdU), K562; assay type: cell-based, Human; settings: Homo sapiens, K562, K562, BrdU, T=72
From the text: (§1) Growth Inhibition. […] T1 values≤T0 values were designated as T, cytotoxicity.

[3] = test system: Shc Y239/240; test: intracellular phosphorylation, Shc Y239/240; assay type: cell-based; settings: whole cells
Protocol: HT29 (colon cancer) and c-Src527F/NIH-3T3 (Src transformed) cell lines were treated with KX2-391 or with AstraZeneca's ATP competitive Src inhibitor AZ28. AZ28 serves as a positive comparator to show what a validated Src inhibitor should do in these assays. After treatment with compound, cells were lysed, subjected to PAGE and probed with a battery of antibodies. […] In addition, off-target protein phosphorylation was also investigated. Further, induction of apoptosis was evaluated via Caspase 3 cleavage. Multiple doses of each compound were tested because the trends in response to increasing drug concentration are the most reliable indicator of activity.
The same range of multiples of the GI50 for AZ28 in these two cell lines was run as a comparison.
KX2-391 and AZ28 inhibited Src transphosphorylation.

[4] = test system: GL261 glioma cells; test: intracranial GL261 glioma survival study; assay type: in vivo, C57BL/6 mice; settings: 5 mg/kg bid oral; C57BL/6 mice, intracranial GL261
Protocol: A brain tumor mouse xenograft study was conducted comparing KX2-361 and KX2-391 (KXO1) to Temodar®. The studies were conducted in C57BL/6 mice. GL261 glioma cells (1×10^5 in 5 μl DMEM) were implanted intracranial coordinates: bregma, lateral 2.0 mm, anterior 1.2 mm, 3.0 mm depth dura. Treatment was initiated 3 days post implantation. The groups were as follows (all doses in 100 μl H2O):
The median survival range and the log-rank (Mantel-Cox) statistical test results comparing the survival distributions of the samples.

[5] = test system: SKOV-3 (Ovarian); test: growth inhibition (BrdU), SKOV-3; assay type: cell-based, Human; settings: Homo sapiens, SK-OV-3, SKOV-3, BrdU, T=72
From the text: as §1

[6] = brain exposure after oral administration; assay type: in vivo, male CD-1 mice; settings: for AUClast: Brain; for Kp: brain and plasma, read-out: AUClast Brain/AUClast Plasma Ratio
Protocol: Plasma concentrations were measured in mice after oral administration. All doses were formulated in purified water. Four groups of male CD-1 mice were dosed after an overnight fast and fed 4 hours post-dose. Dosing was as follows:
Protein was precipitated with 0.25 mL acetonitrile for plasma, 0.25 mL for brain. After centrifugation, supernatant was directly injected into an LC/MS system. The limit of quantitation was 1 ng/mL using a 50 μL aliquot for plasma and a 50 μL, aliquot for brain. The standard curve was 1 to 1,000 ng/mL for both plasma and brain. HPLC conditions were as follows:
HPLC System: Shimadzu SCL-10 System
• Analytical Column: Aquasil C18 5 μm 100×2 mm column. • Column Temperature: Ambient temperature • Autosampler Temperature: Ambient temperature • Mobile Phase A) 10 mM Ammonium formate in water (pH 4). • B) Acetonitrile. • Flow Rate: 0.6 mL/min • Injection Volume: 2 μL • Gradient:
• Mass Spectrometry Conditions were as follows: • Instrument: ABI Sciex API 4000 • Mode: ESI+ • Experiment: MRM (multiple reaction monitoring) • Transitions: KX2-391: m/z 432.4→114.2 (Rt=3.11 minute) • KX2-361: m/z 406.1→253.2 (Rt=3.33 minute)

[7] = male, CD-1, mouse, brain, po, 10 mg/kg, single PO dose 10 mg/kg (Group 1), read-out: Brain Concentrations, Group A, B, C
[8] = male, CD-1, mouse, brain, po, 10 mg/kg, single PO dose 10 mg/kg (Group 1), read-out: Brain Concentrations, Mean

CHK1(h), sequence (O14757 whole entry): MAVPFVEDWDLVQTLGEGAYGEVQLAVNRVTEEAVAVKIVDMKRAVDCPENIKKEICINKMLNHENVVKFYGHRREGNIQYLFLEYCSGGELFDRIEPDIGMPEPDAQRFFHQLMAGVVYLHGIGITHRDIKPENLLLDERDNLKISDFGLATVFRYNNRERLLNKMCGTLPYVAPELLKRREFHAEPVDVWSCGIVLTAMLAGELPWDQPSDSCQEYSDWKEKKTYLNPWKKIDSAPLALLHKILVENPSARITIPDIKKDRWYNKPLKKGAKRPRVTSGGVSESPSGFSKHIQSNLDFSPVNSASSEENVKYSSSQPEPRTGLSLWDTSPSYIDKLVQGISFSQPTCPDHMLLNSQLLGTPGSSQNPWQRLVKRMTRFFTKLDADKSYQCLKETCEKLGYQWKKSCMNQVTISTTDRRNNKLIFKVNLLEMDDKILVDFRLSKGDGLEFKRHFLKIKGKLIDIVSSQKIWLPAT

O=C(Cc1ccc(-c2ccc(OCCN3CCOCC3)cc2)cn1)NCc1ccccc1 [KX2-391]
percent activity of isolated kinase relative to control [1]: 105% | GI50 [2]: 10.9 nM | phosphorylation of Shc Y239/240 (Src transphosphorylation) [3]: inhibited | Median survival [4]: 23 | survival Range [4]: 22-29 | GI50 [5]: 9.75 nM | AUClast ([6]; single oral dose 10 mg/kg): 631 ng·h/g | AUClast ([6]; single oral dose 50 mg/kg): 4211 ng·h/g | KX2-391 Brain Concentrations, Group A ([6]; Male CD-1 mice, single PO dose 50 mg/kg (Group 4), 0 hr, Group A): BLQ (BLQ: Below Limit of Quantitation (1 ng/mL)) | KX2-391 Brain Concentrations, Group B ([6]; Male CD-1 mice, single PO dose 50 mg/kg (Group 4), 0 hr, Group B): BLQ (BLQ: Below Limit of Quantitation (1 ng/mL)) | KX2-391 Brain Concentrations, Group C ([6]; Male CD-1 mice, single PO dose 50 mg/kg (Group 4), 0 hr, Group C): BLQ (BLQ: Below Limit of Quantitation (1 ng/mL)) | Kp ([6]; male, CD-1, mouse, single oral dose 10 mg/kg): 0.42 | Kp ([6]; male, CD-1, mouse, single oral dose 50 mg/kg): 0.39 | concentration at 0.5 h [6, 7]: 398 ng/g | concentration at 0.5 h [6, 8]: 398 ng/g | concentration at 1 h ([6]; male, CD-1, mouse, brain, po, 10 mg/kg, single PO dose 10 mg/kg (Group 1), 1 hr, read-out: Brain Concentrations, Mean): 170 ng/g | concentration at 2 h [6, 7]: 126 ng/g | concentration at 2 h [6, 8]: 98.5 ng/g | concentration at 5 h [6, 7]: 67.7 ng/g | concentration at 5 h [6, 8]: 71.4 ng/g | concentration at 0 hr ([6]; male, CD-1, mouse, brain, po, 50 mg/kg, Male CD-1 mice, single PO dose 50 mg/kg (Group 4), 0 hr, Mean, read-out: KX2-391 Brain Concentrations, Mean): 0 ng/g | concentration at 0.5 hr ([6]; male, CD-1, mouse, brain, po, 50 mg/kg, Male CD-1 mice, single PO dose 50 mg/kg (Group 4), Group A, read-out: KX2-391 Brain Concentrations, Group A): 960 ng/g | concentration at 0.5 hr ([6]; male, CD-1, mouse, brain, po, 50 mg/kg, Male CD-1 mice, single PO dose 50 mg/kg (Group 4), Group B, read-out: KX2-391 Brain Concentrations, Group B): 2120 ng/g | concentration at 0.5 hr ([6]; male, CD-1, mouse, brain, po, 50 mg/kg, Male CD-1 mice, single PO dose 50 mg/kg (Group 4), Group C, read-out: KX2-391 Brain Concentrations, Group C): 1050 ng/g | concentration at 0.5 hr ([6]; male, CD-1, mouse, brain, po, 50 mg/kg, Male CD-1 mice, single PO dose 50 mg/kg (Group 4), Mean, read-out: KX2-391 Brain Concentrations, Mean): 1380 ng/g | concentration at 1 hr ([6]; male, CD-1, mouse, brain, po, 50 mg/kg, Male CD-1 mice, single PO dose 50 mg/kg (Group 4), 1 hr, Group A, read-out: KX2-391 Brain Concentrations, Group A): 851 ng/g | concentration at 1 hr ([6]; male, CD-1, mouse, brain, po, 50 mg/kg, Male CD-1 mice, single PO dose 50 mg/kg (Group 4), 1 hr, Group B, read-out: KX2-391 Brain Concentrations, Group B): 1890 ng/g | concentration at 1 hr ([6]; male, CD-1, mouse, brain, po, 50 mg/kg, Male CD-1 mice, single PO dose 50 mg/kg (Group 4), 1 hr, Group C, read-out: KX2-391 Brain Concentrations, Group C): 549 ng/g | concentration at 1 hr ([6]; male, CD-1, mouse, brain, po, 50 mg/kg, Male CD-1 mice, single PO dose 50 mg/kg (Group 4), 1 hr, Mean, read-out: KX2-391 Brain Concentrations, Mean): 1100 ng/g
